Test results reported in ChEMBL document CHEMBL1131990, “The design of potent, selective, non-covalent, peptide thrombin inhibitors utilizing imidazole as a S1 binding element” (Bioorg Med Chem Lett, 1999).

Experiments:
[1] = Anticoagulant activity for the compound by determining the concentration required to double the activated partial thromboplastin time.; assay type: functional
[2] = target: Urokinase-type plasminogen activator (Homo sapiens) (UniProt P00749); test: Inhibitory activity against the human urokinase
[3] = target: Plasminogen (Homo sapiens) (UniProt P00747); test: Inhibitory activity against the human plasmin
Plasminogen (Homo sapiens), sequence (P00747 97-580 limits assumed): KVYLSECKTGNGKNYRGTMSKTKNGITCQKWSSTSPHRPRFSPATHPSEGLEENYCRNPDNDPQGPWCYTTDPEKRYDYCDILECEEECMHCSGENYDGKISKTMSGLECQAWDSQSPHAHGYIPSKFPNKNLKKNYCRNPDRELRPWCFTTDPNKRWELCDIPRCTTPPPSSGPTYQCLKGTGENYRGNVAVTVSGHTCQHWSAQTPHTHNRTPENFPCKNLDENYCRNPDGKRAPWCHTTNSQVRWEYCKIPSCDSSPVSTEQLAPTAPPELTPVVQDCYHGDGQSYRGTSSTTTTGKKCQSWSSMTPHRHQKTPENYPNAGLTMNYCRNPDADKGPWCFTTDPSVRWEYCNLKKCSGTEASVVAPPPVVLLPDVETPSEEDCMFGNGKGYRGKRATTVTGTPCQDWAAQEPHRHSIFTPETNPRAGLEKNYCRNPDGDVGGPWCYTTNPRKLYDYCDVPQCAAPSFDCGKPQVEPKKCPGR
Plasminogen (Homo sapiens), sequence (P00747 581-810 limits assumed): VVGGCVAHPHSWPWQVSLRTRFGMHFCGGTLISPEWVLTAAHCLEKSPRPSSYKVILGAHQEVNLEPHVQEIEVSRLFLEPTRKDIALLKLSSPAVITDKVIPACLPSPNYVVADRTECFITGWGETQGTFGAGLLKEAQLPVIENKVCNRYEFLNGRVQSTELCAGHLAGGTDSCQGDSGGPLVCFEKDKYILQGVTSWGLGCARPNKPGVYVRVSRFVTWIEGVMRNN

[4] = Anticoagulant activity for the compound by determining the concentration required to double the thrombin time.; assay type: functional
[5] = Anticoagulant activity for the compound by determining the concentration required to double the prothrombin time.; assay type: functional
[6] = target: Vitamin K-dependent protein C (Homo sapiens) (UniProt P04070); test: Inhibitory activity against the activated human protein C
Vitamin K-dependent protein C (Homo sapiens), sequence (P04070 43-197 limits assumed): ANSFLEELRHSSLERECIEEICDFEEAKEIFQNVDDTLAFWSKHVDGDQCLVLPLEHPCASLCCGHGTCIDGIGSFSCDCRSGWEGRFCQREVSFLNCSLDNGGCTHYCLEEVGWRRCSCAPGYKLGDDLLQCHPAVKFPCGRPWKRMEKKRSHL
Vitamin K-dependent protein C (Homo sapiens), sequence (P04070 212-461 limits assumed): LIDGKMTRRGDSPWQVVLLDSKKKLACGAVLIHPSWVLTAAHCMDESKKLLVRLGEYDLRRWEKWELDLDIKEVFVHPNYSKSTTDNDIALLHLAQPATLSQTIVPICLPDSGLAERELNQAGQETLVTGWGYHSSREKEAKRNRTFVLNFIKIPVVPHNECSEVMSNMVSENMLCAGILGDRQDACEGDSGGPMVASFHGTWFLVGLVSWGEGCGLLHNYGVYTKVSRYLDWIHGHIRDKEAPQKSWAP

[7] = target: Prothrombin (Homo sapiens) (UniProt P00734); test: Inhibitory activity against the human alpha-thrombin
[8] = target: Serine protease 1 (Homo sapiens) (UniProt P07477); test: Inhibitory activity against the human trypsin
Serine protease 1 (Homo sapiens), sequence (P07477 whole entry): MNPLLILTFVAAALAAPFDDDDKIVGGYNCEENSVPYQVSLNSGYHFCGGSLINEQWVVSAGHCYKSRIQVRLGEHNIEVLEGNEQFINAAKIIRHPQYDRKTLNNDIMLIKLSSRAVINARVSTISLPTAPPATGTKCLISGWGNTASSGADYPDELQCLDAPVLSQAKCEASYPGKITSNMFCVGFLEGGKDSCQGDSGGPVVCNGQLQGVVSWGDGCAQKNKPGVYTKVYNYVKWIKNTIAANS

[9] = target: Tissue-type plasminogen activator (Homo sapiens) (UniProt P00750); test: Inhibitory activity against the human tissue plasminogen activator
Tissue-type plasminogen activator (Homo sapiens), sequence (P00750 36-562 limits assumed): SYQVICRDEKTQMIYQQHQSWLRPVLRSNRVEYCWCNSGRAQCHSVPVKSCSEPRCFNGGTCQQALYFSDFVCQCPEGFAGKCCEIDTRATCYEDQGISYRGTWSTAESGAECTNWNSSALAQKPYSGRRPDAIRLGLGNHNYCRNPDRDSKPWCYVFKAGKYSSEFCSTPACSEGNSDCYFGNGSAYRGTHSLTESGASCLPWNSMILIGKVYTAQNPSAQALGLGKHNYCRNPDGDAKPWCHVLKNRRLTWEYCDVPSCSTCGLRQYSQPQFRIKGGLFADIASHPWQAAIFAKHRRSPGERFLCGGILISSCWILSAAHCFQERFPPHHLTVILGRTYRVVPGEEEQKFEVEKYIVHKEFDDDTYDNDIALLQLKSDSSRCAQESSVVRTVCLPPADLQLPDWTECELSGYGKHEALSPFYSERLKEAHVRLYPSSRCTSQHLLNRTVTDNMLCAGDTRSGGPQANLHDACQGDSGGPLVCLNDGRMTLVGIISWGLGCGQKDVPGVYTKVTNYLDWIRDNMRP

[10] = target: Vitamin K-dependent protein C (Homo sapiens) (UniProt P04070); test: Inhibitory activity against the human activated protein C

| SMILES | Concentration [1] | K ass [2] | K ass [3] | Concentration [4] | Concentration [5] | K ass [6] | K ass [7] | K ass [8] | K ass [9] | K ass [10] |
| --- | --- | --- | --- | --- | --- | --- | --- | --- | --- | --- |
| CN[C@H](Cc1ccccc1)C(=O)N1CCC[C@H]1C(=O)N[C@H](C=O)CCCNC(=N)N | 930 ng/mL | 40000 l M-1 | 1.5e+06 l M-1 | 41 ng/mL | 1000 ng/mL | 300000 l M-1 | 6.7e+08 l M-1 | 91 l M-1 |  |  |
| NC(N)=NCCCCNC(=O)[C@@H]1CCCN1C(=O)[C@H](N)CC1CCCCC1 | 490 ng/mL | < 10000 l M-1 | 10000 l M-1 | 44 ng/mL | 770 ng/mL | 10000 l M-1 | 3e+07 l M-1 | 260000 M⁻¹ | 11000 l M-1 |  |
| Cc1[nH]cnc1CCCNC(=O)[C@@H]1CCCN1C(=O)[C@H](N)CC1CCCCC1 |  |  |  |  |  |  | 2.3e+07 l M-1 |  |  |  |
| N[C@H](CC1CCCCC1)C(=O)N1[C@H](C(=O)NCCCc2c[nH]cn2)C[C@@H]2CCCC[C@@H]21 | 470 ng/mL | < 10000 l M-1 | < 10000 l M-1 | 61 ng/mL | 700 ng/mL |  | 3.4e+07 l M-1 | 40000 l M-1 | < 10000 l M-1 | 10000 l M-1 |
| O=C(O)CN[C@H](CC1CCCCC1)C(=O)N1CCC[C@H]1C(=O)NCCCc1c[nH]cn1 | 170 ng/mL | < 10000 l M-1 | < 10000 l M-1 | 20 ng/mL | 380 ng/mL |  | 1e+08 l M-1 | 290000 l M-1 | < 10000 l M-1 | 20000 l M-1 |
| N[C@H](CC1CCCCC1)C(=O)N1[C@H](C(=O)NC/C=C/c2c[nH]cn2)C[C@@H]2CCCC[C@@H]21 |  |  |  |  |  |  | 7e+06 l M-1 |  |  |  |
| N[C@H](CC1CCCCC1)C(=O)N1CCC[C@H]1C(=O)NC/C=C/c1c[nH]cn1 |  |  |  |  |  |  | 1.6e+07 l M-1 |  |  |  |
| N[C@H](CC1CCCCC1)C(=O)N1CCC[C@H]1C(=O)NCCCCc1c[nH]cn1 |  |  |  |  |  |  | 1.3e+06 l M-1 |  |  |  |
| O=C(O)CN[C@H](CC1CCCCC1)C(=O)N1CCC[C@H]1C(=O)NC/C=C/c1c[nH]cn1 |  |  |  |  |  |  | 8.4e+07 l M-1 |  |  |  |
| N[C@H](CC1CCCCC1)C(=O)N1CCC[C@H]1C(=O)NCCc1c[nH]cn1 |  |  |  |  |  |  | 4.4e+06 l M-1 |  |  |  |
| N[C@H](CC1CCCCC1)C(=O)N1CCC[C@H]1C(=O)NCCCc1c[nH]cn1 | 660 ng/mL | < 10000 l M-1 | < 10000 l M-1 | 74 ng/mL | 1000 ng/mL |  | 2e+07 l M-1 | 10000 l M-1 | < 10000 l M-1 | < 10000 l M-1 |
